Consider 68 compounds from ChEMBL document CHEMBL3507680, “University of Dundee, Gates Library screen for HepG2 cell viability”.

The series in a line: Human HepG2 cell viability assay in 384 well format. As to conditions: HepG2 cells, read-out: Inhibition. Details: dose 125 nL, time 70.5 hour; cytotoxicity at 70.5 h: concentration not given beside the values. It is filed as toxicity, cell-based.
As to `Cc1noc(C2CCC3(CCN(C(=O)c4sccc4C)CC3)O2)n1` (stereo not drawn), the cytotoxicity at 70.5 h was -4%. The same measure for `O=C(c1cccnc1)N1CCOCC2(CCN(c3ncccn3)C2)C1` (stereo not drawn): -1.45%; for `CS(=O)(=O)N1CCc2ncc(CNC(=O)C3CCC3)n2CC1`: -1.87%. For `CC(C)CC(=O)N1CCCn2cnc(CNS(C)(=O)=O)c2C1`, the cytotoxicity at 70.5 h worked out at 2.43%. As to `COCCN1CCC2(CC1)COc1ccccc1S(=O)(=O)N(C)C2`, the cytotoxicity at 70.5 h was 2.33%.

`Cc1noc(C2CCC3(CCN(C(=O)c4ccn(C)n4)CC3)O2)n1` (stereo not drawn): the cytotoxicity at 70.5 h amounted to 10.4%. The same measure for `CCOC[C@H]1CC[C@H]2[C@H](CCN2C(=O)c2cnccn2)O1`: -4.15%; for `COC[C@H]1CC[C@H]2[C@H](CCN2C(=O)c2ccncc2F)O1`: -0.359%. The result for `CCOC[C@@H]1CC[C@H]2[C@H](CCN2C(=O)c2cnccn2)O1` reads 2.78%; that for `CCC(=O)N1CCC2(COCc3cnc(NCc4ccco4)nc32)C1` (stereo not drawn), 0.523%. For the compound `Cc1cccc(CN2C[C@@H]3CCCO[C@@H]3[C@H](Nc3ccccn3)C2)n1`, the cytotoxicity at 70.5 h was 1.63%. The same measure for `CCn1ncc2c1C(COC)CN(Cc1cnn(C)c1)C2` (stereo not drawn): 8.92%. Turning to `Cc1cc(CN2C[C@@H]3COC[C@]3(COCC(=O)N(C)C)C2)no1`, the cytotoxicity at 70.5 h was -4.13%.

`Cn1cccc1C(=O)N1CCc2ccc(=O)n(C)c2CC1`: the cytotoxicity at 70.5 h is -6.17%. The result for `CC(C)CNC(=O)[C@H]1CCS(=O)(=O)[C@@H]2CN(Cc3cccnc3)C[C@H]12` reads -4.4%.

For the compound `Cc1ccccc1N1CC2(CCN(c3nncs3)C2)CC1=O` (stereo not drawn), the cytotoxicity at 70.5 h was -1.13%.

With `O=C(NCCN1CCC(c2cccs2)CC1)c1ccccc1C(F)(F)F`, the cytotoxicity at 70.5 h came to 1.14%. For the compound `O=C(Nc1nc2c(s1)CN(S(=O)(=O)C1CC1)CC2)c1c(F)cccc1F`, the cytotoxicity at 70.5 h was found to be 3.16%. The result for `Cc1cccc(CS(=O)(=O)NCC(O)Cc2ccccc2)c1` (stereo not drawn) reads 0.192%; that for `COc1ccccc1OCC(=O)NCC(O)(c1ccccc1)C1CC1` (stereo not drawn), -3.14%. For `CC(=O)N1CCC(Oc2ccc(Cl)cn2)CC1`, the cytotoxicity at 70.5 h is 0.563%.

Turning to `CS(=O)(=O)N1CCC(Oc2cnccn2)CC1`, the cytotoxicity at 70.5 h was -5.72%. For the compound `CN(C)CC1CSCCCN1C(=O)c1ccc(=O)[nH]c1` (stereo not drawn), the cytotoxicity at 70.5 h amounted to 10.8%. The same measure for `CN(C)CC1CSCCCN1C(=O)c1ccc(C(C)(C)C)cc1` (stereo not drawn): -0.949%; for `COCCN(Cc1ccoc1)C(=O)c1c(F)cccc1Cl`: -0.424%. The same measure for `Cc1nsc(C(=O)N2CCc3ccccc3C2)n1`: 28.2%; for `CC(C)(C)C(=O)NCCn1ccc(-c2ccncc2)n1`: -4.99%; for `Cn1cnnc1S(=O)(=O)C1CCN(S(=O)(=O)c2c(Cl)cccc2Cl)CC1`: -8.23%.

`CNC(=O)CS(=O)(=O)C1CCN(S(=O)(=O)C2CC2)CC1`: the cytotoxicity at 70.5 h is -3.01%. The same measure for `CNC(=O)CS(=O)(=O)C1CCN(S(=O)(=O)c2ccccc2Br)CC1`: -8.95%; for `CC(C)CNc1nc(C(=O)/N=c2\[nH]nc(C(C)(C)C)s2)cs1`: 4.48%; for `CC(C)n1[nH]c(=O)c2c1NC(=O)CC2c1cccnc1` (stereo not drawn): 9.01%. For the compound `CCOC(=O)N1CCN(C(=O)c2sc(-c3ccc(F)cc3)nc2C)CC1`, the cytotoxicity at 70.5 h was -8.29%. The result for `Cc1nc(-c2ccccc2F)sc1C(=O)N1CCN(C)CC1` reads -10.6%; that for `O=C(NCCc1ccccc1)C1CCCN(c2ccc3nncn3n2)C1` (stereo not drawn), -9.33%. Turning to `CCCNC(=O)c1sc(Nc2ccc(Cl)cn2)nc1C`, the cytotoxicity at 70.5 h is -5%.

With `COC(=O)Cn1cccc(S(=O)(=O)N2CCC(C)CC2)c1=O`, the cytotoxicity at 70.5 h stood at 41%. For `CC1CCN(S(=O)(=O)c2cccn(CC(=O)N3CCOCC3)c2=O)CC1`, the cytotoxicity at 70.5 h was -16%.

On to `O=C(Cn1cc(C(=O)O)ccc1=O)NCc1ccc(F)c(Cl)c1`, for which the cytotoxicity at 70.5 h is -13.4%.

On to `CC(C)(C)C(=O)Cn1nc(-c2ccccc2F)ccc1=O`, for which the cytotoxicity at 70.5 h was -21.7%. The same measure for `O=C1CC(c2ccccc2)c2c(n3ccsc3nc2=O)N1` (stereo not drawn): -20%; for `COc1ccc(C2SCC(=O)Nc3ccsc32)cc1` (stereo not drawn): -3.24%. For `CC(C)c1nnc2ccc(N3CCC(C(=O)Nc4nccs4)CC3)nn12`, the cytotoxicity at 70.5 h was 10.7%. Regarding `O=C(Cn1nc2c(cc1=O)CSCC2)NC(Cc1ccccc1)C(=O)O` (stereo not drawn), the cytotoxicity at 70.5 h was 23%.

For the compound `O=C(O)c1cc2c(nc1O)CC(c1cccc(Cl)c1)CC2=O` (stereo not drawn), the cytotoxicity at 70.5 h was -2.93%. The result for `Cc1ccc(C(=O)N2CCc3ncnc(-c4cnn(C)c4)c3CC2)cn1` reads -2.36%; that for `O=C(NCC1CC1)[C@@H]1CC[C@@H]2[C@@H](CCN2Cc2ccco2)O1`, 1.26%; that for `CN(C)C(=O)N1CCC2(CC1)CCN(c1ncccn1)C2`, 2.39%.

Consider `Cc1oncc1C(=O)N1CCc2ncnc(-c3cnn(C)c3)c2CC1`, for which the cytotoxicity at 70.5 h is -1.31%. Turning to `CNC(=O)c1ccc2c(c1)C1(CCN(C(C)C)CC1)C(=O)N2`, the cytotoxicity at 70.5 h turned out to be 2.6%. `CN(C)C(=O)COC[C@]12COC[C@H]1CN(Cc1ccccc1)C2`: the cytotoxicity at 70.5 h is -2.22%. On to `Cc1nc(CN2C[C@@H]3COC[C@]3(COCC(=O)N(C)C)C2)cs1`, for which the cytotoxicity at 70.5 h is -5.31%. For `CN(C)CCn1c2c(ccc1=O)CCN(C(=O)c1ccoc1)CC2`, the cytotoxicity at 70.5 h was -1.95%. The same measure for `Cc1ccoc1C(=O)N1CCc2ccc(=O)n(CCN(C)C)c2CC1`: -3.74%; for `CNC(=O)CN1CC[C@H]2CN(C(=O)c3cccc(C)c3)C[C@H]2C1`: -2.46%; for `COCCNC(=O)[C@H]1C[C@@H]2CCN(c3ncccn3)C[C@H]2O1`: -1.44%. The same measure for `CC(C)CNC(=O)[C@H]1CCS(=O)(=O)[C@@H]2CN(CC(C)C)C[C@H]12`: -1.81%. The result for `CN(C)CCOCC1CN(Cc2ccc(F)cc2)Cc2nnn(C)c21` (stereo not drawn) reads 2.45%; that for `O=C(NCCc1ccccn1)[C@@H]1CC[C@@H]2[C@@H](CCN2Cc2ccoc2)O1`, 0.0992%; that for `CCn1ncc2c1C(COC)CN(Cc1ccc(F)cc1)C2` (stereo not drawn), 2.06%. For the compound `Cc1cccc(CN2C[C@@H]3COC[C@]3(COCC(=O)N(C)C)C2)n1`, the cytotoxicity at 70.5 h was -3.44%. The same measure for `Cc1ncsc1CN1C[C@@H]2CCCO[C@@H]2[C@H](Nc2ccccn2)C1`: -4.96%; for `Cc1cccc(CN2CC3(CCN(Cc4ccco4)CC3)OCC2=O)n1`: -3.31%; for `c1cncc(C2COC3(CCN(Cc4cccs4)CC3)C2)c1` (stereo not drawn): -6.54%.

Take `COc1ccc(CN2CCC3(CC2)CC(c2cccnc2)CO3)cc1` (stereo not drawn): the cytotoxicity at 70.5 h is -6.67%. The result for `COCCn1cc2c(n1)C(CNCc1nccs1)OCC2` (stereo not drawn) reads -2.52%; that for `Cc1cccc(CN2CC3(CCN(C4CCOC4)CC3)OCC2=O)n1` (stereo not drawn), 0.761%; that for `COCCO[C@H]1CCN(Cc2cccnc2)[C@H]1Cc1cccnc1`, 17.5%.
